± gives the expanded uncertainty stated by the source.
Experiments:
[1] = xn = mol fraction of the nth substance listed; conditions: 100 kPa, Liquid; for thermal conductivity: Hot wire method
[2] = 100 kPa, Liquid, Capillary tube (Ostwald / Ubbelohde) method

OCCOCCO [diethylene glycol] + O
[1]
Conditions | mass density [kg/m3] | thermal conductivity [W/m/K] | viscosity [mPa·s]
293.45 K, x1 = 0.5 | 1111 ± 2 | – | 22 ± 0.6
294.05 K, x1 = 0.75 | 1115 ± 2 | – | 30.4 ± 0.8
294.25 K, x1 = 0.25 | 1095 ± 2 | – | 9.79 ± 0.26
294.4 K, x1 = 0.25 | – | 0.291 ± 0.006 | –
295.9 K, x1 = 0.5 | – | 0.235 ± 0.005 | –
296.4 K, x1 = 0.75 | – | 0.209 ± 0.004 | –
312.95 K, x1 = 0.5 | 1097 ± 2 | – | 9.64 ± 0.26
313.05 K, x1 = 0.25 | 1081 ± 2 | – | 4.88 ± 0.14
313.05 K, x1 = 0.75 | 1101 ± 2 | – | 13.3 ± 0.4
322.1 K, x1 = 0.5 | – | 0.244 ± 0.005 | –
323.4 K, x1 = 0.25 | – | 0.31 ± 0.006 | –
323.8 K, x1 = 0.75 | – | 0.213 ± 0.004 | –
332.95 K, x1 = 0.5 | 1082 ± 2 | – | 5.03 ± 0.14
333.05 K, x1 = 0.25 | 1066 ± 2 | – | 2.76 ± 0.08
333.05 K, x1 = 0.75 | 1087 ± 2 | – | 6.75 ± 0.19
347.4 K, x1 = 0.25 | – | 0.315 ± 0.006 | –
347.8 K, x1 = 0.5 | – | 0.249 ± 0.005 | –
349.6 K, x1 = 0.75 | – | 0.217 ± 0.004 | –
352.95 K, x1 = 0.5 | 1066 ± 2 | – | 3.01 ± 0.09
353.05 K, x1 = 0.75 | 1071 ± 2 | – | 3.9 ± 0.11
353.15 K, x1 = 0.25 | 1051 ± 2 | – | 1.76 ± 0.05
371.9 K, x1 = 0.5 | – | 0.258 ± 0.005 | –
373 K, x1 = 0.25 | – | 0.322 ± 0.007 | –
373.2 K, x1 = 0.75 | – | 0.219 ± 0.004 | –
380.05 K, x1 = 0.5 | 1043 ± 2 | – | –
381.45 K, x1 = 0.25 | 1027 ± 2 | – | –
382.55 K, x1 = 0.5 | – | – | 1.66 ± 0.05
382.55 K, x1 = 0.75 | 1048 ± 2 | – | –
384.95 K, x1 = 0.25 | – | – | 1.03 ± 0.03
385.05 K, x1 = 0.75 | – | – | 2 ± 0.06
390.25 K, x1 = 0.5 | 1035 ± 2 | – | –
390.95 K, x1 = 0.75 | 1042 ± 2 | – | –
392.75 K, x1 = 0.25 | 1017 ± 2 | – | –
394.25 K, x1 = 0.5 | – | – | 1.37 ± 0.04
394.95 K, x1 = 0.75 | – | – | 1.72 ± 0.05
395.6 K, x1 = 0.5 | – | 0.257 ± 0.005 | –
396 K, x1 = 0.25 | – | 0.325 ± 0.007 | –
396.75 K, x1 = 0.25 | – | – | 0.912 ± 0.028
396.9 K, x1 = 0.75 | – | 0.217 ± 0.004 | –
405.35 K, x1 = 0.5 | 1023 ± 2 | – | –
406.95 K, x1 = 0.75 | 1029 ± 2 | – | –
409.25 K, x1 = 0.25 | 1004 ± 2 | – | –
409.35 K, x1 = 0.5 | – | – | 1.12 ± 0.03
410.95 K, x1 = 0.75 | – | – | 1.35 ± 0.04
413.25 K, x1 = 0.25 | – | – | 0.743 ± 0.023
421.5 K, x1 = 0.25 | – | 0.33 ± 0.007 | –
421.6 K, x1 = 0.75 | – | 0.222 ± 0.005 | –
422 K, x1 = 0.5 | – | 0.256 ± 0.005 | –
424.25 K, x1 = 0.5 | 1006 ± 2 | – | –
424.65 K, x1 = 0.75 | 1014 ± 2 | – | –
426.35 K, x1 = 0.25 | 987.6 ± 2.2 | – | –
428.25 K, x1 = 0.5 | – | – | 0.865 ± 0.026
428.65 K, x1 = 0.75 | – | – | 1.05 ± 0.03
430.35 K, x1 = 0.25 | – | – | 0.61 ± 0.019
441.65 K, x1 = 0.25 | 973.3 ± 2.2 | – | –
443.05 K, x1 = 0.5 | 988.2 ± 2.3 | – | –
443.65 K, x1 = 0.75 | 996.3 ± 2.3 | – | –
445.65 K, x1 = 0.25 | – | – | 0.521 ± 0.017
446.8 K, x1 = 0.75 | – | 0.213 ± 0.004 | –
447 K, x1 = 0.5 | – | 0.253 ± 0.005 | –
447.05 K, x1 = 0.5 | – | – | 0.707 ± 0.022
447.5 K, x1 = 0.25 | – | 0.328 ± 0.007 | –
447.65 K, x1 = 0.75 | – | – | 0.838 ± 0.026

OCCOCCOCCO [triethylene glycol]
[2]
Conditions | viscosity [mPa·s]
299.65 K | 35.1 ± 0.7
313.05 K | 19.5 ± 0.4
333.1 K | 9.66 ± 0.21
353.05 K | 5.55 ± 0.12
373.5 K | 3.41 ± 0.07
393.3 K | 2.36 ± 0.05
413.25 K | 1.71 ± 0.04
428.1 K | 1.39 ± 0.03

OCCOCCOCCO [triethylene glycol] + O
[1]
Conditions | mass density [kg/m3] | thermal conductivity [W/m/K] | viscosity [mPa·s]
293.85 K, x1 = 0.25 | 1108 ± 2 | – | 19.2 ± 0.5
294.05 K, x1 = 0.5 | 1120 ± 2 | – | 36 ± 0.9
294.15 K, x1 = 0.75 | 1122 ± 2 | – | 43.2 ± 1.1
295 K, x1 = 0.25 | – | 0.258 ± 0.005 | –
295.5 K, x1 = 0.5 | – | 0.21 ± 0.004 | –
295.5 K, x1 = 0.75 | – | 0.195 ± 0.004 | –
313.05 K, x1 = 0.25 | 1093 ± 2 | – | 8.6 ± 0.2
313.05 K, x1 = 0.5 | 1105 ± 2 | – | 15.2 ± 0.4
313.05 K, x1 = 0.75 | 1108 ± 2 | – | 18.3 ± 0.5
323.8 K, x1 = 0.25 | – | 0.268 ± 0.005 | –
324.6 K, x1 = 0.5 | – | 0.216 ± 0.004 | –
327.1 K, x1 = 0.75 | – | 0.197 ± 0.004 | –
333.05 K, x1 = 0.25 | 1078 ± 2 | – | 4.52 ± 0.13
333.05 K, x1 = 0.5 | 1089 ± 2 | – | 7.52 ± 0.2
333.05 K, x1 = 0.75 | 1092 ± 2 | – | 9.04 ± 0.24
349.1 K, x1 = 0.25 | – | 0.275 ± 0.006 | –
349.5 K, x1 = 0.5 | – | 0.219 ± 0.004 | –
349.8 K, x1 = 0.75 | – | 0.201 ± 0.004 | –
353.05 K, x1 = 0.25 | 1061 ± 2 | – | 2.7 ± 0.08
353.05 K, x1 = 0.5 | 1073 ± 2 | – | 4.32 ± 0.12
353.05 K, x1 = 0.75 | 1076 ± 2 | – | 5.19 ± 0.15
372.7 K, x1 = 0.75 | – | 0.202 ± 0.004 | –
373.6 K, x1 = 0.5 | – | 0.22 ± 0.005 | –
373.8 K, x1 = 0.25 | – | 0.28 ± 0.006 | –
379.65 K, x1 = 0.25 | 1039 ± 2 | – | –
382.15 K, x1 = 0.25 | – | – | 1.5 ± 0.04
384.25 K, x1 = 0.5 | 1046 ± 2 | – | –
384.95 K, x1 = 0.75 | 1049 ± 2 | – | –
386.75 K, x1 = 0.5 | – | – | 2.09 ± 0.06
387.45 K, x1 = 0.75 | – | – | 2.41 ± 0.07
389.35 K, x1 = 0.25 | 1030 ± 2 | – | –
391.35 K, x1 = 0.5 | 1041 ± 2 | – | –
392.55 K, x1 = 0.75 | 1044 ± 2 | – | –
393.35 K, x1 = 0.25 | – | – | 1.27 ± 0.04
395.35 K, x1 = 0.5 | – | – | 1.84 ± 0.05
396 K, x1 = 0.5 | – | 0.221 ± 0.005 | –
396.4 K, x1 = 0.25 | – | 0.285 ± 0.006 | –
396.55 K, x1 = 0.75 | – | – | 2.11 ± 0.06
397.6 K, x1 = 0.75 | – | 0.2 ± 0.004 | –
405.75 K, x1 = 0.25 | 1016 ± 2 | – | –
407.45 K, x1 = 0.75 | 1032 ± 2 | – | –
407.85 K, x1 = 0.5 | 1028 ± 2 | – | –
409.75 K, x1 = 0.25 | – | – | 1 ± 0.03
411.45 K, x1 = 0.75 | – | – | 1.68 ± 0.05
411.85 K, x1 = 0.5 | – | – | 1.43 ± 0.04
421.3 K, x1 = 0.25 | – | 0.292 ± 0.006 | –
421.9 K, x1 = 0.5 | – | 0.221 ± 0.005 | –
422.5 K, x1 = 0.75 | – | 0.198 ± 0.004 | –
423.35 K, x1 = 0.25 | 999.2 ± 2.2 | – | –
425.35 K, x1 = 0.75 | 1016 ± 2 | – | –
425.95 K, x1 = 0.5 | 1011 ± 2 | – | –
427.35 K, x1 = 0.25 | – | – | 0.813 ± 0.025
429.35 K, x1 = 0.75 | – | – | 1.3 ± 0.04
429.95 K, x1 = 0.5 | – | – | 1.11 ± 0.03
442.45 K, x1 = 0.25 | 980 ± 2 | – | –
443.45 K, x1 = 0.5 | 995 ± 2 | – | –
444.55 K, x1 = 0.75 | 999.5 ± 2.3 | – | –
445 K, x1 = 0.25 | – | 0.282 ± 0.006 | –
446.45 K, x1 = 0.25 | – | – | 0.662 ± 0.021
446.5 K, x1 = 0.75 | – | 0.195 ± 0.004 | –
447.45 K, x1 = 0.5 | – | – | 0.903 ± 0.028
448.3 K, x1 = 0.5 | – | 0.216 ± 0.004 | –
448.55 K, x1 = 0.75 | – | – | 1.03 ± 0.03

From the NIST ThermoML archive (doi:10.1021/je025610o)
